Reference: patent US20260167615A1, “COMPOUNDS AND COMPOSITIONS AS GPR52 MODULATORS” (Neurocrine Biosciences, Inc., priority 2022, published 2026)
Where two headings read alike, the source gives them in different places.

Biological target: recombinant human GPR52 (Homo sapiens, UniProt Q9Y2T5)
Test: HTRF cAMP assay, GPR52 activity (Example A)
Type: cell-based
Conditions: for Emax: maximum cAMP at 10 μM or 31.6 μM test compound, as percentage of Emax of control compound 4-(3-(3-fluoro-5-(trifluoromethyl)benzyl)-5-methyl-4,5-dihydro-1H-1,2,4-triazol-1-yl)-2-methylbenzamide
Experimental: Compounds of Formula I were assessed for their ability to modulate GPR52 activity. HTRF CAMP assays were performed using a commercially available assay kit (CAMP Gs HiRange HTRF®, CisBio). Controls and compounds were solubilized in DMSO and 62.5 nanoliters of the diluted compounds were transferred into 384-well NBS assay plates via acoustic or precision low-volume dispensing. Compounds were further diluted to 1× with the addition of 20,000 cells per well. Flp-In™—CHO cells that stably express recombinant human GPR52 were used in the assay.
Cells were harvested with cell stripper and resuspended in stimulation buffer. After thirty minutes incubation at room temperature, detection reagents were added to each well. Plates were then incubated for an additional 30 minutes at room temperature. CAMP produced by the cells during the first incubation period competes with d2-labeled CAMP for binding to an anti-cAMP monoclonal antibody labeled with europium cryptate. The measured signal was inversely proportional to the concentration of cAMP produced by the cells and this signal was quantified using a PHERAstar® multi-mode plate reader.
Dose-response curves were generated from the HTRF counts that have been transformed based on a CAMP referenced curve, and then normalized to the positive control. EC50 values were obtained using a nonlinear regression curve-fitting program. […] The Emax (Table 13) is the maximum amount of cAMP (nM) produced by incubation of the cells with 10 μM or 31.6 μM of a test compound. The compound is defined by the top plateau of the sigmoid curve fit. The curve is then normalized to a control compound, in this case 4-(3-(3-fluoro-5-(trifluoromethyl)benzyl)-5-methyl-4,5-dihydro-1H-1,2,4-triazol-1-yl)-2-methylbenzamide (Tokumaru, K., et al., “Design, synthesis, and pharmacological evaluation of 4-azolyl-benzamide derivatives as novel GPR52 agonists”, Bioorganic & Medicinal Chemistry, Volume 25, Issue 12, June 2017, pages 3098-3115), and expressed as a percentage of the Emax of that control compound.

[1] = average EC50 (n=1 to 15), Flp-In-CHO cells stably expressing recombinant human GPR52, cAMP HTRF, read-out: EC50 (N=)

Chain of recombinant human GPR52 (Q9Y2T5 whole entry): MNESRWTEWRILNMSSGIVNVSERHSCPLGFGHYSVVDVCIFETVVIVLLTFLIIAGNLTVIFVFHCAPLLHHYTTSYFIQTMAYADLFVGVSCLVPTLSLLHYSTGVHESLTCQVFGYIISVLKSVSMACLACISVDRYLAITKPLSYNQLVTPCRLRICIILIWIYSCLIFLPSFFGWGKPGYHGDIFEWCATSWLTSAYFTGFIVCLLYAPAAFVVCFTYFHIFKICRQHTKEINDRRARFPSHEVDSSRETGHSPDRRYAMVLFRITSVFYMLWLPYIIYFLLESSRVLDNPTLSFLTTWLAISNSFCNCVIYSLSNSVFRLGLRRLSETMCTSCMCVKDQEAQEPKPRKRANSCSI

Cc1cc(-c2cc(Oc3ccc4c(C)nn(C(F)(F)F)c4c3)ccn2)ccc1C(N)=O [Example 135, 2-methyl-4-(4-((3-methyl-1-(trifluoromethyl)-1H-indazol-6-yl)oxy)pyridin-2-yl)benzamide]
EC50 [1]: 101 to 1000 nM
Emax: 115%

CCc1cc(-c2cc(Oc3cnc4c(c3)c(C)nn4C)cc(N)n2)ccc1C(N)=O [Example 22, 4-(6-amino-4-((1,3-dimethyl-1H-pyrazolo[3,4-b]pyridin-5-yl)oxy)pyridin-2-yl)-2-ethylbenzamide]
EC50 [1]: 101 to 1000 nM
Emax: 123%

CCc1cc(-c2cc(Oc3cnc4cnn(C)c4c3)ccn2)ccc1C(N)=O [Example 27, 2-ethyl-4-(4-((1-methyl-1H-pyrazolo[4,3-b]pyridin-6-yl)oxy)pyridin-2-yl)benzamide]
EC50 [1]: 101 to 1000 nM
Emax: 99%

Cc1cc(-c2cc(Oc3ccc4occc4c3)ccn2)ccc1C(N)=O [Example 83, 4-(4-(benzofuran-5-yloxy)pyridin-2-yl)-2-methylbenzamide]
EC50 [1]: 101 to 1000 nM
Emax: 153%

CCc1cc(-c2cccc(Oc3cnc4c(C)nn(C)c4c3)c2)ccc1C(=O)NC [Example 66, 3′-((1,3-dimethyl-1H-pyrazolo[4,3-b]pyridin-6-yl)oxy)-3-ethyl-N-methyl-[1,1′-biphenyl]-4-carboxamide]
EC50 [1]: 101 to 1000 nM
Emax: 87%

CCc1cc(-c2cc(Oc3ccc4cnn(C)c4c3)cc3nccn23)ccc1C(N)=O [Example 26, 2-ethyl-4-(7-((1-methyl-1H-indazol-6-yl)oxy)imidazo[1,2-a]pyridin-5-yl)benzamide]
EC50 [1]: 25 to 100 nM
Emax: 75%

Cc1cc(-c2cc(Oc3cc(Cl)c4ncccc4c3)ccn2)ccc1C(N)=O [Example 100, 4-(4-((8-chloroquinolin-6-yl)oxy)pyridin-2-yl)-2-methylbenzamide]
EC50 [1]: 101 to 1000 nM
Emax: 112%

CCc1cc(-c2cc(Oc3ccc4c(C)nn(C)c4c3)ccn2)ccc1C(N)=O [Example 53, 4-(4-((1,3-dimethyl-1H-indazol-6-yl)oxy)pyridin-2-yl)-2-ethylbenzamide]
EC50 [1]: 25 to 100 nM
Emax: 105%

Cc1cc(-c2cc(Oc3ccc4c(F)nn(C)c4c3)ccn2)ccc1C(N)=O [Example 128, 4-(4-((3-fluoro-1-methyl-1H-indazol-6-yl)oxy)pyridin-2-yl)-2-methylbenzamide]
EC50 [1]: 25 to 100 nM
Emax: 118%

Cc1cc(-c2cc(Oc3ccc4ccncc4c3)ccn2)ccc1C(N)=O [Example 79, 4-(4-(isoquinolin-7-yloxy)pyridin-2-yl)-2-methylbenzamide]
EC50 [1]: 101 to 1000 nM
Emax: 60%

CCc1cc(-c2cc(Oc3ccc4cn[nH]c4c3)ccn2)ccc1C(N)=O [Example 41, 4-(4-((1H-indazol-6-yl)oxy)pyridin-2-yl)-2-ethylbenzamide]
EC50 [1]: 101 to 1000 nM
Emax: 125%

CCc1cc(-c2cc(Oc3ccc4c(c3)NCCO4)ccn2)ccc1C(N)=O [Example 68, 4-(4-((3,4-dihydro-2H-benzo[b][1,4]oxazin-6-yl)oxy)pyridin-2-yl)-2-ethylbenzamide]
EC50 [1]: < 25 nM
Emax: 131%

Cc1cc(-c2ccnc(Oc3ccc4c(c3)c(C)nn4C)c2)ccc1C(N)=O
EC50 (comparison of position of the nitrogen in the pyridine ring relative to the oxygen linker, read-out: Activity EC50): 2040 nM

Cc1cc(-c2cc(Oc3cnc4ccc(Cl)cc4c3)ccn2)ccc1C(N)=O [Example 111, 4-(4-((6-chloroquinolin-3-yl)oxy)pyridin-2-yl)-2-methylbenzamide]
EC50 [1]: 101 to 1000 nM
Emax: 88%

Cc1cc(-c2cncc(Oc3ccc4nn(C)cc4c3)n2)ccc1C(N)=O [Example 10, 2-methyl-4-(6-((2-methyl-2H-indazol-5-yl)oxy)pyrazin-2-yl)benzamide]
EC50 [1]: 101 to 1000 nM
Emax: 106%

NC(=O)c1ccc(-c2cc(Oc3ccc4cnccc4c3)ccn2)cc1Cl [Example 82, 2-chloro-4-(4-(isoquinolin-6-yloxy)pyridin-2-yl)benzamide]
EC50 [1]: 101 to 1000 nM
Emax: 110%

CCc1cc(-c2cc(Oc3cnc4cc(F)c(F)cc4c3)ccn2)ccc1C(N)=O [Example 113, 4-(4-((6,7-difluoroquinolin-3-yl)oxy)pyridin-2-yl)-2-ethylbenzamide]
EC50 [1]: 101 to 1000 nM
Emax: 95%

Cc1cc(-c2cc(Oc3cnc4c(F)cccc4c3)ccn2)ccc1C(N)=O [Example 103, 4-(4-((8-fluoroquinolin-3-yl)oxy)pyridin-2-yl)-2-methylbenzamide]
EC50 [1]: 101 to 1000 nM
Emax: 60%

CCc1cc(-c2cc(Oc3ccc4cnn(C)c4c3)cc(N)n2)ccc1C(N)=O [Example 18, 4-(6-amino-4-((1-methyl-1H-indazol-6-yl)oxy)pyridin-2-yl)-2-ethylbenzamide]
EC50 [1]: 101 to 1000 nM
Emax: 107%

CCc1cc(-c2cc(Oc3ccc4ncccc4c3)ccn2)ccc1C(N)=O [Example 70, 2-ethyl-4-(4-(quinolin-6-yloxy)pyridin-2-yl)benzamide]
EC50 [1]: 101 to 1000 nM
Emax: 126%

Cc1nc2cc(Oc3ccnc(-c4ccc(C(N)=O)c(C)c4)c3)ccc2s1 [Example 86, 2-methyl-4-(4-((2-methylbenzo[d]thiazol-5-yl)oxy)pyridin-2-yl)benzamide]
EC50 [1]: 101 to 1000 nM
Emax: 86%

CCc1cc(-c2cc(Oc3cnc4c(c3)c(C)nn4C)ccn2)ccc1C(N)=O [Example 55, 4-(4-((1,3-dimethyl-1H-pyrazolo[3,4-b]pyridin-5-yl)oxy)pyridin-2-yl)-2-ethylbenzamide]
EC50 [1]: 25 to 100 nM
Emax: 108%

CCc1cc(-c2cc(Oc3ccc4cnn(C)c4c3)ccn2)ccc1C(N)=O [Example 2, 2-ethyl-4-{4-[(1-methyl-1H-indazol-6-yl)oxy]pyridin-2-yl}benzamide]
EC50 [1]: 101 to 1000 nM
Emax: 98%

Cc1cc(-c2cc(Oc3cnc4c(c3)c(F)nn4C)ccn2)ccc1C(N)=O [Example 126, 4-(4-((3-fluoro-1-methyl-1H-pyrazolo[3,4-b]pyridin-5-yl)oxy)pyridin-2-yl)-2-methylbenzamide]
EC50 [1]: 101 to 1000 nM
Emax: 103%

CCc1cc(-c2cccc(Oc3ccc4cnn(C)c4c3)c2)ccc1C(=O)NC [Example 65, 3-ethyl-N-methyl-3′-((1-methyl-1H-indazol-6-yl)oxy)-[1,1′-biphenyl]-4-carboxamide]
EC50 [1]: 1000 to 2000 nM
Emax: 83%

CCc1cc(-c2cc(Oc3ccc4ncc(F)cc4c3)ccn2)ccc1C(N)=O [Example 95, 2-ethyl-4-(4-((3-fluoroquinolin-6-yl)oxy)pyridin-2-yl)benzamide]
EC50 [1]: 101 to 1000 nM
Emax: 138%

Cc1cc(-c2cc(Oc3ccc4c(C)nn(C)c4c3)cc(N)n2)ccc1C(N)=O [Example 19, 4-(6-amino-4-((1,3-dimethyl-1H-indazol-6-yl)oxy)pyridin-2-yl)-2-methylbenzamide]
EC50 [1]: 101 to 1000 nM
Emax: 90%

Cc1cc(-c2cc(Oc3ccc4cnn(C)c4c3)ccn2)ccc1C(N)=O [Example 43, 2-methyl-4-(4-((1-methyl-1H-indazol-6-yl)oxy)pyridin-2-yl)benzamide]
EC50 [1]: 101 to 1000 nM
Emax: 103%

Cc1cc(-c2cccc(Oc3ccc4cnn(C)c4c3)c2)ccc1C(N)=O [Example 51, 3-methyl-3′-((1-methyl-1H-indazol-6-yl)oxy)-[1,1′-biphenyl]-4-carboxamide]
EC50 [1]: 1000 to 2000 nM
Emax: 96%

CCc1cc(-c2cc(Oc3cnc4c(F)cccc4c3)ccn2)ccc1C(N)=O [Example 102, 2-ethyl-4-(4-((8-fluoroquinolin-3-yl)oxy)pyridin-2-yl)benzamide]
EC50 [1]: 101 to 1000 nM
Emax: 90%

Cc1cc(-c2cc(Oc3cnc4c(F)nn(C)c4c3)ccn2)ccc1C(N)=O [Example 127, 4-(4-((3-fluoro-1-methyl-1H-pyrazolo[4,3-b]pyridin-6-yl)oxy)pyridin-2-yl)-2-methylbenzamide]
EC50 [1]: 101 to 1000 nM
Emax: 116%

Cc1cc(-c2cc(Oc3ccc4cnn(C)c4c3)cc(CN)n2)ccc1C(N)=O [Example 94, 4-(6-(aminomethyl)-4-((1-methyl-1H-indazol-6-yl)oxy)pyridin-2-yl)-2-methylbenzamide]
EC50 [1]: 101 to 1000 nM
Emax: 129%

CCc1cc(-c2cc(Oc3cnc4c(F)cc(F)cc4c3)ccn2)ccc1C(N)=O [Example 117, 4-(4-((6,8-difluoroquinolin-3-yl)oxy)pyridin-2-yl)-2-ethylbenzamide]
EC50 [1]: 101 to 1000 nM
Emax: 115%

CCc1cc(-c2cc(Oc3cnc4c(C(F)(F)F)nn(C)c4c3)ccn2)ccc1C(=O)NC [Example 61, 2-ethyl-N-methyl-4-(4-((1-methyl-3-(trifluoromethyl)-1H-pyrazolo[4,3-b]pyridin-6-yl)oxy)pyridin-2-yl)benzamide]
EC50 [1]: 101 to 1000 nM
Emax: 81%
